Measurements reported in ChEMBL document CHEMBL3739366, “Discovery of HTL6641, a dual orexin receptor antagonist with differentiated pharmacodynamic properties” (Medchemcomm, 2015).

What was measured:
Cytochrome P450 2C8 = biological target: T1, Cytochrome P450 2C8 (Homo sapiens, UniProt P10632); assay: Inhibition of CYP2C8 (unknown origin); type: ADME
T1 sequence (P10632 whole entry): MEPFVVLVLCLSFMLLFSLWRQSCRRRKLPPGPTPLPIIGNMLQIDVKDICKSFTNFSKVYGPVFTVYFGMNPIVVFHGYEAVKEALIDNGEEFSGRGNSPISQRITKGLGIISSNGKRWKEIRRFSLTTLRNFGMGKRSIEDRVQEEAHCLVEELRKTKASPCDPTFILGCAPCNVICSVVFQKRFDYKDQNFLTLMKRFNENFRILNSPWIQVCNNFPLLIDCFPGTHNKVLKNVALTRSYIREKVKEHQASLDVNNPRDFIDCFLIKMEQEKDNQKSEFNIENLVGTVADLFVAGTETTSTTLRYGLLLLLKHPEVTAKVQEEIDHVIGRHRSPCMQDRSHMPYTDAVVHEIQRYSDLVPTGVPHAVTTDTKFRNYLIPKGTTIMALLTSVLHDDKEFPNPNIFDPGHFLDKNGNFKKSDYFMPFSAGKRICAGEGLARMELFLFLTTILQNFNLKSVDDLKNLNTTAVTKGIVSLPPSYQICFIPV

[1] = biological target: T2, Orexin receptor type 2 (Homo sapiens) (UniProt O43614)
T2 sequence (whole entry): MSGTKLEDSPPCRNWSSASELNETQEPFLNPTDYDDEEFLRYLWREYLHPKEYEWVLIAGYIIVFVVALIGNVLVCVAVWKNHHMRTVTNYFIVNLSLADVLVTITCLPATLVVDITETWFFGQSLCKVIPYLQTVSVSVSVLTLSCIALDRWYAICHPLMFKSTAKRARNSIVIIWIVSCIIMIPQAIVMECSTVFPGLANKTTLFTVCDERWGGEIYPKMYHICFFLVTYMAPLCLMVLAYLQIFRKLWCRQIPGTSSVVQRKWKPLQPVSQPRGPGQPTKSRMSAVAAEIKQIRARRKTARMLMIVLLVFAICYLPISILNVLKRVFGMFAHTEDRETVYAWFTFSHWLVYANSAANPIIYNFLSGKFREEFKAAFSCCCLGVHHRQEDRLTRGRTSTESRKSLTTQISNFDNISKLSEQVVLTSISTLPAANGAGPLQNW
Description: Binding affinity to orexin receptor-2 (unknown origin) assessed as dissociation half-life by SPR assay

Rattus norvegicus [2] = assay: Antiinsomnic activity in CD1 rat assessed as reduction of time spent awake at 3 to 10 mg/kg, po administered at circadian time 18 hrs measured after 3 hrs; type: functional; parameters: scale not given: the % may be the effect or the level left
[3] = Clearance in beagle dog at 1 mg/kg, iv; type: ADME, organism-based, Canis lupus familiaris; conditions: in vivo
Cytochrome P450 1A2 = biological target: T3, Cytochrome P450 1A2 (Homo sapiens, UniProt P05177); assay: Inhibition of CYP1A2 (unknown origin); type: ADME
T3 sequence (P05177 whole entry): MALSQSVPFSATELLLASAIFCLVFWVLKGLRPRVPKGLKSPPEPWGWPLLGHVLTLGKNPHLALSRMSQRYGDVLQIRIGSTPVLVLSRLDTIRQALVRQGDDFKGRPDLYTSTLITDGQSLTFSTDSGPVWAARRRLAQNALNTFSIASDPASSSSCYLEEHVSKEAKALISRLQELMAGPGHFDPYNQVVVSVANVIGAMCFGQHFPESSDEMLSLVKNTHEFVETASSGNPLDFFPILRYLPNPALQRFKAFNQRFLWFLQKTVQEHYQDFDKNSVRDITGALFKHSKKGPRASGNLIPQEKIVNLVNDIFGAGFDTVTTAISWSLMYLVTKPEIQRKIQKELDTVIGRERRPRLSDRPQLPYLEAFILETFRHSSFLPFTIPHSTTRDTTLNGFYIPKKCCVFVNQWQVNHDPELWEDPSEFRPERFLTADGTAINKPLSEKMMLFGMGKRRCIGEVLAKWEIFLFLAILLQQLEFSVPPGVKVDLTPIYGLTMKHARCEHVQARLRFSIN

[4] = biological target: Voltage-gated inwardly rectifying potassium channel KCNH2 (Homo sapiens, UniProt Q12809); assay: Inhibition of human ERG
[5] = Half life in beagle dog at 1 mg/kg, po; type: ADME, organism-based, Canis lupus familiaris; conditions: in vivo
Rattus norvegicus [6] = assay: Ex-vivo receptor occupancy of orexin receptor-2 Sprague-Dawley rat frontal cortex using [3H]EMPA at 1 mg/kg, po after 1 hr by autoradiography relative to control; type: functional
[7] = Bidirectional apparent permeability of the compound across human Caco2 cells; type: ADME, cell-based; conditions: Caco-2, read-out: permeability
Canis familiaris = assay: AUC (infinity) in beagle dog at 1 mg/kg, po; type: ADME, organism-based, Canis lupus familiaris; parameters: dose 1 mg/kg, route oral, time infinity; conditions: in vivo
Rattus norvegicus [8] = assay: Antiinsomnic activity in CD1 rat assessed as increase of NREM sleep at 10 mg/kg, po administered at circadian time 18 hrs measured after 3 hrs; type: functional
[9] = biological target: T4, Orexin/Hypocretin receptor type 1 (Homo sapiens, UniProt O43613); assay: Displacement of [3H]-4-(2,6-Difluoro-4-methoxybenzyl)-2-(5,6-dimethoxypyridin-3-yl)-2H-1,2,4-benzothiadiazin-3(4H)-one 1,1-dioxide from orexin receptor-1 (unknown origin) after 90 mins
T4 sequence (O43613 whole entry): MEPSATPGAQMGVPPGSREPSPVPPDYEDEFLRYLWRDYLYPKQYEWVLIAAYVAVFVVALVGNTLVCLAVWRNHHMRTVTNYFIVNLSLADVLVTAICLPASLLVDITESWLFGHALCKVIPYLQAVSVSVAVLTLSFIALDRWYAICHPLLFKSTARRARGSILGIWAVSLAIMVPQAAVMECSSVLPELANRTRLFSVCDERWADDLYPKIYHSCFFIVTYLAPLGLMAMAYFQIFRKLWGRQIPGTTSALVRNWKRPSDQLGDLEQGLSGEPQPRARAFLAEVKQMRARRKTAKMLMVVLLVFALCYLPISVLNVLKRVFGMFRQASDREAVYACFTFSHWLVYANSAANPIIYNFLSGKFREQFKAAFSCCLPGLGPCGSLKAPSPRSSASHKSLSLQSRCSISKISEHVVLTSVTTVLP

Rattus norvegicus [10] = assay: Antiinsomnic activity in CD1 rat assessed as increase of promoted sleep at 3 to 10 mg/kg, po administered at circadian time 18 hrs measured after 3 hrs; type: functional
[11] = Half life in rat hepatocytes; type: ADME, cell-based, Hepatocyte
Rattus norvegicus [12] = assay: Effect on latency to first NREM episode CD1 rat assessed as reduction of at 3 and 10 mg/kg, po administered at circadian time 18 hrs; type: ADME, organism-based; conditions: in vivo
[13] = Half life in cynomolgus monkey hepatocytes; type: ADME, cell-based, Macaca fascicularis, Hepatocyte
[14] = Plasma protein binding in dog; type: ADME, cell-free, Canis lupus familiaris; conditions: read-out: PPB (converted)

Sequence of Voltage-gated inwardly rectifying potassium channel KCNH2 (Q12809 whole entry): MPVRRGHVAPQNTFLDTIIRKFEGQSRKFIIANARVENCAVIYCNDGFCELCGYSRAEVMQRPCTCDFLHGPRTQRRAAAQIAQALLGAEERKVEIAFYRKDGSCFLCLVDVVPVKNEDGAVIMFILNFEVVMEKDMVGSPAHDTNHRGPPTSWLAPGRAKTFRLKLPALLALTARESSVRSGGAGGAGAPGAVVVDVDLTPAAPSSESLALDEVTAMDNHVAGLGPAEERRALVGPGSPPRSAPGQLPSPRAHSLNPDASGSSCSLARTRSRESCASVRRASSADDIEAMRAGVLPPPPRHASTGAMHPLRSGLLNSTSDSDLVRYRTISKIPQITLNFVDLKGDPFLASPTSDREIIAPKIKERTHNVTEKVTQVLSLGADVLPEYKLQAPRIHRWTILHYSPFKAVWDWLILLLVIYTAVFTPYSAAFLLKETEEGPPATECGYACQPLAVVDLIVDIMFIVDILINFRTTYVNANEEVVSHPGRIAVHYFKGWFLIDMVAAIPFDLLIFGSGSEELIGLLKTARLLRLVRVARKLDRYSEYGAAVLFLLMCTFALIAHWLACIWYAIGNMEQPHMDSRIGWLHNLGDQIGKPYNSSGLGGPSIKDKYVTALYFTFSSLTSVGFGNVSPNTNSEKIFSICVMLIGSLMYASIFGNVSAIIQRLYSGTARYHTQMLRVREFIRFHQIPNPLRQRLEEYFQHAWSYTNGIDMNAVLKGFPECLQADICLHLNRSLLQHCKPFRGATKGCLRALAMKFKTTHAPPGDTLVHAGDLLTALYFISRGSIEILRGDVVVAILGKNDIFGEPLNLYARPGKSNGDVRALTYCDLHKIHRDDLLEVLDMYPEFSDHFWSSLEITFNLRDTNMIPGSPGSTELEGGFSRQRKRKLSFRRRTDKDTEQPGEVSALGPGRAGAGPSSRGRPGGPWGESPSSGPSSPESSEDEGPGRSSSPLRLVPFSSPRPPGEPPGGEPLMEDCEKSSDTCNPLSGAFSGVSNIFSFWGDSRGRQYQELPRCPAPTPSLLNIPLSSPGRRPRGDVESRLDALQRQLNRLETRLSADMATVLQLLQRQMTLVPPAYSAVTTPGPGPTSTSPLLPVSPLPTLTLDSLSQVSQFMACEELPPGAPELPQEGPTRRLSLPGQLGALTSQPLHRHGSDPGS

With `COc1cc(N2C(=O)N(Cc3c(F)cc(F)cc3F)c3ncccc3S2(=O)=O)cnc1OC` the IC50 (Cytochrome P450 2C8) was > 10 µM, the T1/2 [1] was 4.2 min and the Activity (Rattus norvegicus [2]) was 18.5%. The clearance [3] was 13 mL/min/kg, the IC50 (Cytochrome P450 1A2) was > 10 µM and the IC50 [4] was > 10 µM. The half-life [5] was 7.1 h, the Occ (Rattus norvegicus [6]) was 57% and the Papp [7] was 52 ×10⁻⁶ cm/s. For the same molecule, the AUC (Canis familiaris) was 2440 ng·h/mL, the Activity (Rattus norvegicus [8]) was 30.7% and the Ki [9] was 0.02 µM. The Activity (Rattus norvegicus [10]) was 17.4%, the half-life [11] was > 1.83 h and the Activity (Rattus norvegicus [12]) was “Non-toxic”. For the same molecule, the half-life [13] was > 4.17 h and the fraction unbound [14] was 0.019.
